Test results published in patent US7524943B2, “Method for the production of plant seed with modified fiber content and modified seed coat” (National Research Council of Canada, priority 2001, dated 2009).

Experiments:
CJAS1 = test: Inhibitor effects on induction/expression of CJAS1; type: in vivo, B. carinata; details: data not shown; for CJAS1 transcript accumulation: non-induced material
Method: The effects of the nitric oxide (NO) scavenger 2-phenyl-4,4,5,5-tetramethylimidazolinone-3-oxide-1-oxyl (PTIO), the protein phosphatase type 1 and 2A inhibitor okadaic acid (OKA), the serine/threonine protein kinases inhibitor staurosporine (STAU) and the protein translation inhibitor cycloheximide (CHX) were determined on induction/expression of CJAS1 in B. carinata.

CJAS1 gene = CJAS1 gene expression by Northern blot after treatments; type: in vivo, B. carinata; details: treatment of wild-type Brassica plants; data not shown
From the text: CJAS1 gene expression was studied via Northern blot of various plant tissues taken from wild-type Brassica plants (data not shown). […] The amount of transcript in flower bud and silique was slightly greater than in the other tissues. […] The rapid response to Cu and MeJA implies a control mechanism sensitive to membrane damage. The activation of CJAS1 transcription by the four different compounds is unusual but not without precedent.

[1] = system: Escherichia coli GMP synthetase mutant ght1; test: Complementation of Escherichia coli GMP synthetase mutant ght1; type: cell-based; details: cDNA in expression vector
From the text: Thus, it is postulated that the protein encodes an amidotransferase activity distinct from GMP synthase that utilizes an aromatic compound for a substrate. This is analogous to a similar step seen for the phenylpropanoid pathway, another pathway that is involved in the formation of fiber (and the seed coat) and is a pathway that utilizes aromatic compounds. In the phenylpropanoid pathway, L-phenyalanine, an aromatic amino acid, is a substrate for the enzyme phenyalanine ammonia lyase (PAL). The enzymatic activity of PAL leads to the formation of cinnamic acid by deamination which eventually leads to the formation of lignin monomers. In the present case, CJAS1 may be a subunit of an enzyme that encodes a […] activity utilized within another secondary metabolite pathway and reduction of the enzyme activity (as evidenced by antisense RNA inhibition of the gene expression) can lead to alteration in the formation of phenolic-related compounds. This alteration may further affect the formation of other compounds in the seed, in particular, compounds that are known to be related to fiber formation.

B. carinata = test: Visual characterization of seed coat color of transformed B. carinata; type: in vivo
From the text: The plant transformation vectors carrying the antisense genes made with the defense-related cDNAs were used for plant transformation. The plant species used for transformation was a selection of B. carinata, the same selection that was originally treated with Copper chloride. This selection of B. carinata has dark-colored, thick seed coats. For transformation, Agrobacterium tumifaciens strain GV3101/pMP90 (C. Koncz and J. Schell, 1986, Mol. Gen. Genet. 204:383-396) was used. The transformation vectors were introduced into the Agrobacterium strain using standard techniques. Plant explants were co-cultured for three days then transferred to selective media. Plants were selected on kanamycin.
Transformed B. carinata were analyzed by visual characterization. […] A sample comparison of seeds obtained from wild-type B. carinata and transgenic B. carinata expressing antisense CJAS1 (SEQ ID NO:1) is shown in FIG. 2a and FIG. 2b.

CN[C@@H]1C[C@H]2O[C@@](C)([C@@H]1OC)n1c3ccccc3c3c4c(c5c6ccccc6n2c5c31)C(=O)NC4 [STAU, staurosporine]
CJAS1 transcript accumulation (CJAS1): increased
interaction with MeJA in induction of CJAS1 expression (CJAS1; with MeJA): acted synergistically

O=C(O)c1ccccc1O [SA]
amount of CJAS1 transcript (CJAS1 gene): further increased

CC1(C)N([O])C(c2ccccc2)=[N+]([O-])C1(C)C [PTIO, 2-phenyl-4,4,5,5-tetramethylimidazolinone-3-oxide-1-oxyl]
CJAS1 transcript accumulation (CJAS1): increased

C=C1[C@@H](O)[C@@H]2O[C@]3(CC[C@H](/C=C/[C@@H](C)[C@@H]4CC(C)=C[C@@]5(O[C@H](C[C@@](C)(O)C(=O)O)CC[C@H]5O)O4)O3)CC[C@H]2O[C@@H]1[C@@H](O)C[C@H](C)[C@H]1O[C@@]2(CCCCO2)CC[C@H]1C [OKA, okadaic acid]
CJAS1 transcript accumulation (CJAS1): increased

CC1=CC(=O)CC(C)(C)C1(O)/C=C/C(C)=C\C(=O)O (stereo not drawn) [ABA]
amount of CJAS1 transcript (CJAS1 gene): further increased

C[C@@H]1C[C@@H]([C@H](O)CC2CC(=O)NC(=O)C2)C(=O)[C@@H](C)C1 [cycloheximide]
CJAS1 transcript accumulation (CJAS1): increased

[Cl][Cu][Cl] [Cu, copper chloride]
amount of CJAS1 transcript (CJAS1 gene): further increased

CC/C=C\CC1C(=O)CCC1CC(=O)OC (stereo not drawn) [MeJA]
amount of CJAS1 transcript (CJAS1 gene): further increased

B1: CJAS1 cDNA: copper chloride-induced cDNA from B. carinata, expressed in antisense orientation from a double 35S promoter (nucleic acid, listed as Brassica carinata)
DNA: ATTGCACCTCTCTCTTTATTCTCTCTCTGCTAATCAACCACTCTCTCTATTTACGTTAGCCGGTAAAAAAATGGTTGAGCAGAAAAAGTTCGCTCTGTTTCTAGCGACTCCTGATTCAGAGTTCGTGAAGAAAGAGTACGGAGGATACCACAACGTGTTCGTGTCCACGTTCGGTGACGAAGGAGAGCATTGGGACTCGTTTAGAGTCGTTGAAGGCGAGTTTCCCGACGAGAAAGATCTTGACAAGTACGACGGTTTCGTTATTAGTGGAAGCTCTCACGATTCCTTCGAGAATGATCCTTGGATCCTTAGGCTATGTGAGATCGTCAAGATACTCGATGAGAAGAAGAAGAAAATTCTTGGCATATGCTTTGGTCACCAGATCATAGCCAGAGTAAGAGGAGGAACAGTGGGAAGAGCAAGGAAGGGACCAGAACTTAAGCTTACAGACATAACCATCGTGAAGGATGCGATTAAACCAGGAAGTTTCTTCGGAAACGAGATTCCGGATAGCATAGCCATCCTAAAGTTACATCAGGACGAAGTGTTAGTGTTGCCTGAATCTGCTAAAGTACTAGCTTATTCAGAAAAGTACGAGGTGGAGATGTTCTCCATTGAGGATCATTTATTCTGTATTCAAGGACATCCCGAGTATAACAGAGAGATTCTCCACGAGATCGTTGATCGTGTTCTTCGTCTTGGCTTCATCAAGGAAGATTTTGCGGATGCGGCAAAAGCCTCGATGGAGAATAGGGGAGCAGACAGGAAACTTTTGGAGACGATTTGCAAGAATTTTCTCAAAGGCAGAGTTCCAGCTAATTAATTAGTTTCACTCCCAAATTATCTATTTGGCTCTTGTTATATTGGAGCTAGCACTTATGGATTTATTATCTTGCTGTATTGTATTCAATATATAACCTATTAATCTCATCCTTGTCAAGGAAACAAAAACTCATATTAATCTCAATGTCATATTTATGTGTTGTTACCCATAAGTAAAATTATTCAATAAAAACTATAGTTTTGCAAAAAAAAAAAAAAAAA
complementation of GMP synthetase mutant [1]: no complementation was observed
transformants producing a lighter-colored (yellow) seed (B. carinata; CJAS1 cDNA antisense): over 50%
seed coat color of transformed plants (B. carinata; antisense orientation, 35S promoter, B. carinata): yellow-colored seed coats
